Source: US9993494B2, “Compositions and methods for treating fibrotic disease” (eFFECTOR Therapeutics, Inc., priority 2014, dated 2018)

Tested on: normal human lung fibroblasts
Experiment: Ribosomal profiling: translational efficiency in TGFβ-treated fibroblasts
Format: cell-based
Settings: vs untreated fibroblasts
Procedure: Ribosomal profiling allows for measurement of changes in transcription and translation on a genome-wide basis accompanying TGFβ-dependent transformation of fibroblasts to myofibroblasts. Ribosomal profiles of the TGFβ-treated fibroblasts from Example 1 (about 6×10^6 cells/10 cm plate) were prepared and analyzed for changes in translational efficiencies with respect to potential disease-associated cellular changes accompanying this TGFβ-induced transformation.
Briefly, cells were washed with cold PBS supplemented with cycloheximide and lysed with 1× mammalian cell lysis buffer for 10 minutes on ice. Lysates were clarified by centrifugation for 10 minutes at 14,000 rpm and supernatants were collected. Cell lysates were processed to generate ribosomal protected fragments and total mRNA according to the instructions included with the ARTseq Ribosome Profiling Kit (Illumina, San Diego, Calif.). Sequencing of total RNA (RNA) and of ribosome-protected fragments of RNA (RPF) was carried out using RNA-Seq methodology according to the manufacturer's instructions (Illumina). To analyze the ribosomal profiles, RNA-Seq reads were processed with tools from the FASTX-Toolkit (fastq_quality_trimmer, fastx_clipper and fastx_trimmer). Unprocessed and processed reads were evaluated for a variety of quality measures using FastQC, and processed reads were mapped to the human genome using TopHat (see, e.g., Trapnell et al., Bioinformatics 25:1105, 2009). Gene-by-gene assessment of the number of fragments strictly and uniquely mapping to the coding region of each gene was conducted using HTSeq-count, a component of the HTSeq package. […] Genes with low counts in either RPF or RNA were excluded from differential analyses. Pathway and network analyses of differential data were conducted using Ingenuity Pathway Analysis (IPA).

TGF-β
Log2FC TE AKT1: −0.15
Log2FC TE AKT2: −0.16
Log2FC TE AKT3: 0.35
Log2FC TE ATM: −0.16
Log2FC TE EIF1: 0.75
Log2FC TE EIF2A: 0.74
Log2FC TE EIF2AK1: −0.25
Log2FC TE EIF2AK3: 0.67
Log2FC TE EIF2AK4: −0.28
Log2FC TE EIF2B1: 0.57
Log2FC TE EIF2B2: 0.16
Log2FC TE EIF2B3: 0.54
Log2FC TE EIF2B4: −0.35
Log2FC TE EIF2B5: 0.46
Log2FC TE EIF2C2: 0.12
Log2FC TE EIF2S1: −0.18
Log2FC TE EIF2S2: −0.43
Log2FC TE EIF2S3: 1.05
Log2FC TE EIF3A: 0.04
Log2FC TE EIF3B: 0.30
Log2FC TE EIF3D: 0.71
Log2FC TE EIF3E: 1.33
Log2FC TE EIF3F: 0.92
Log2FC TE EIF3G: 0.55
Log2FC TE EIF3H: 1.34
Log2FC TE EIF3I: 0.29
Log2FC TE EIF3K: 0.73
Log2FC TE EIF3L: 1.63
Log2FC TE EIF3M: 0.90
Log2FC TE EIF4A1: 0.35
Log2FC TE EIF4A2: 0.41
Log2FC TE EIF4A3: 0.19
Log2FC TE EIF4E: −0.51
Log2FC TE EIF4G1: 0.10
Log2FC TE EIF4G2: 0.87
Log2FC TE EIF4G3: −0.54
Log2FC TE EIF5: 0.56
Log2FC TE FAU: 0.35
Log2FC TE GRB2: 0.05
Log2FC TE GSK3B: −0.13
Log2FC TE HRAS: 0.13
Log2FC TE MAP2K1: −0.18
Log2FC TE MAP2K2: 0.02
Log2FC TE MAPK1: 0.12
Log2FC TE MAPK3: 0.29
Log2FC TE MRAS: −0.45
Log2FC TE NRAS: 0.19
Log2FC TE PABPC1: 0.16
Log2FC TE PAIP1: −0.69
Log2FC TE PIK3C2A: −0.64
Log2FC TE PIK3C3: −0.09
Log2FC TE PIK3CA: −0.66
Log2FC TE PIK3R4: −0.69
Log2FC TE PPP1CA: 0.04
Log2FC TE PPP1CB: 0.13
Log2FC TE PPP1CC: 0.27
Log2FC TE PPP1R15A: −0.09
Log2FC TE RAF1: 0.16
Log2FC TE RPL3: 1.68
Log2FC TE RPL4: 1.23
Log2FC TE RPL5: 1.49
Log2FC TE RPL6: 1.13
Log2FC TE RPL7: 0.59
Log2FC TE RPL7A: 1.37
Log2FC TE RPL8: 0.69
Log2FC TE RPL9: 1.41
Log2FC TE RPL10: 0.74
Log2FC TE RPL10A: 0.92
Log2FC TE RPL11: 0.78
Log2FC TE RPL12: 1.28
Log2FC TE RPL13: 0.83
Log2FC TE RPL13A: 1.26
Log2FC TE RPL14: 1.08
Log2FC TE RPL15: 0.95
Log2FC TE RPL17: 0.97
Log2FC TE RPL18: 0.81
Log2FC TE RPL18A: 1.06
Log2FC TE RPL19: 0.71
Log2FC TE RPL21: 0.83
Log2FC TE RPL22: 0.22
Log2FC TE RPL22L1: 0.84
Log2FC TE RPL23: 0.79
Log2FC TE RPL23A: 1.03
Log2FC TE RPL24: 1.09
Log2FC TE RPL26: 1.42
Log2FC TE RPL27: 1.17
Log2FC TE RPL27A: 1.17
Log2FC TE RPL28: 1.24
Log2FC TE RPL29: 1.16
Log2FC TE RPL30: 1.20
Log2FC TE RPL31: 0.80
Log2FC TE RPL32: 1.55
Log2FC TE RPL34: 1.21
Log2FC TE RPL35: 0.59
Log2FC TE RPL35A: 1.22
Log2FC TE RPL36: 0.76
Log2FC TE RPL36AL: −0.08
Log2FC TE RPL37: 1.31
Log2FC TE RPL37A: 1.33
Log2FC TE RPL38: 1.00
Log2FC TE RPL41: 0.85
Log2FC TE RPLP0: 0.73
Log2FC TE RPLP1: 0.50
Log2FC TE RPLP2: 0.93
Log2FC TE RPS2: 0.88
Log2FC TE RPS3: 1.22
Log2FC TE RPS3A: 1.48
Log2FC TE RPS4X: 1.14
Log2FC TE RPS4Y1: 0.78
Log2FC TE RPS5: 0.75
Log2FC TE RPS6: 1.59
Log2FC TE RPS7: 1.13
Log2FC TE RPS8: 1.20
Log2FC TE RPS9: 0.97
Log2FC TE RPS10: 0.74
Log2FC TE RPS11: 0.97
Log2FC TE RPS12: 0.94
Log2FC TE RPS13: 1.15
Log2FC TE RPS14: 1.01
Log2FC TE RPS15: 0.74
Log2FC TE RPS15A: 1.53
Log2FC TE RPS16: 1.10
Log2FC TE RPS18: 1.18
Log2FC TE RPS19: 0.99
Log2FC TE RPS20: 1.39
Log2FC TE RPS21: 1.36
Log2FC TE RPS23: 0.74
Log2FC TE RPS24: 0.66
Log2FC TE RPS25: 1.58
Log2FC TE RPS26: 0.71
Log2FC TE RPS27: 1.08
Log2FC TE RPS27A: 0.71
Log2FC TE RPS27L: −0.15
Log2FC TE RPS28: 0.74
Log2FC TE RPS29: 0.89
Log2FC TE RPSA: 0.99
Log2FC TE RRAS: 0.00
Log2FC TE RRAS2: 0.02
Log2FC TE SHC1: −0.04
Log2FC TE SOS2: 0.49
Log2FC TE UBA52: 0.87
